Test results from patent US20260356826A1, “SALTS OF AMINO QUINAZOLINE DERIVATIVES” (CHIESI FARMACEUTICI S.P.A., priority 2023, published 2026).
≈ marks a conversion by molar mass, not a printed value. Entries after “also recorded” stand apart in the source; their conditions may differ. Structures can show the parent of a compound that is named as a salt. Where two headings read alike, the source gives them in different places. Each block holds one compound with its values, some of them ahead of it.

How the values were obtained:
Type in all cases: physicochemical
[1] = Comparative stability at 40 °C and 75% RH at open conditions (UPLC/UV and XRPD); details: 40 °C/75% RH open; for % area main peak (LC/UV): 0 days
Method: In a second experiment, approximately 100 mg of compound A mesylate salt Form 2 according to Example 2, free base Form A according to Example 1 and esylate salt Form 1 according to Example 6 were stored in three open amber glass vials covered with filter paper to simulate open conditions. The samples were stored in a stability chamber at 75% RH and 40 °C to compare their stability. At the time points 0, 28, 56, 84 days the corresponding samples were removed from the stability chambers. After conditioning at RT, the samples were analyzed by UPLC/UV and XRPD.

[2] = Dissolution in simulated oral fluids (FaSSGF, FaSSIF, FeSSIF), DISS Profiler, 37 °C, 24 hours; details: for Maximum solubility: 1440 min
Method: The dissolution of mesylate salt Form 2 of the compound A in comparison with the free base Form A of compound A was tested in all simulated oral fluids. The experiments were conducted with DISS Profiler 6 Channel Pion. The experiments were conducted until 24 hours at 37 °C.
The mediums used, namely FaSSGF (Fasted State Simulated Gastric Fluid), FaSSIF (Fasted State Simulated Intestinal Fluid) and FeSSIF (Fed State Simulated Intestinal Fluid) were obtained from Biorelevant.com Ltd. The medium compositions are listed in table 9. The saturated solution concentrations were about 14-15 mg/ml (as free base) in FaSSGF and about 3-4 mg/ml (as free base) in FaSSIF and FeSSIF.

[3] = Two-sector dissolution study (FaSSGF then FaSSIF), parachute effect; details: for Estimated supersaturation duration (parachute effect): second experiment, pH adjusted to 6.5 after FaSSIF addition; for Time of precipitation: protocol of the second experiment
Method: The dissolution behaviour of mesylate salt Form 2 of compound A was studied in a two-sector model in comparison with free base Form A to evaluate a possible “spring-parachute effect”.
The parachute effect is observable in two-sector dissolution studies. A test compound is incubated with FaSSGF and its concentration is monitored over time. FaSSIF is then added to the solution whilst continuing the monitoring. The period of time in which the test compound remains in solution without or before precipitating refers to the supersaturation time and represents the parachute effect.
The experiment was conducted using DISS Profiler 6 Channel Pion. The free base Form A and mesylate salt Form 2 of compound A were each incubated in 8 ml of FaSSGF (pH 1.6) for 20 minutes at the concentration of 350 mg/250 ml. 16 ml of FaSSIF concentrated 1.5× (pH 6.5) was added with an incubation time of 180 minutes. The resulting target pH should be approximately 5-6. The experiment was conducted at 37 °C. The entire dissolution profile was monitored until the end of the experiment to evaluate a possible parachute effect, its duration and to evaluate the maximum solubility reached after the addition of FaSSIF.
A second experiment was conducted, with an additional step of adjusting the pH to 6.5 after FaSSIF addition. Both free base Form A and mesylate salt Form 2 of compound A were tested.
A third experiment was conducted on esylate salt Form 1 of compound A, using the same protocol of the second experiment, with free base Form A and mesylate salt Form 2 of compound A as controls. The experiment was aimed at evaluating comparatively a possible parachute effect of the esylate salt and its duration. Precipitation of the free base was observed after roughly 20 minutes, while precipitation of the esylate salt and mesylate salt were observed after 30 and 40 minutes respectively.

[4] = Formulations in 20% SBE-βCD with citrate buffer: appearance and pH
Method: The drug content and homogeneity of the mesylate salt Form 2 and the free base Form A of Compound A in 20% w/v SBE-PCD (Sulfobutyl-ether-β-Cyclodextrin, Captisol; CYDEX Pharmaceutical) were tested at different citrate buffer concentrations such as 0.05 M, 0.1 M, 0.5 M and 1 M, at pH 2.5. To prepare the vehicle, the proper amount of citric acid (Sigma Aldrich; CAS: 77-92-9) was dissolved in water in a volumetric flask, then the pH was increased up to 2.5 using 1M NaOH. Then water was added and brought to the final volume. SBE-PCD was weighed and added in a beaker containing the citrate buffer, then left under stirring until it was dissolved. The required volume of vehicle was added to a known amount of Compound A free base Form A or Mesylate salt Form 2, then sonicated at RT for at least 10 min. The formulation was kept under magnetic stirring for at least 10 min before analysis. The stability in terms of content uniformity and pH were evaluated for up to 8 days. The samples were kept at RT and the nominal concentration was 40 mg/ml.

[5] = Dynamic vapour sorption (DVS), hygroscopicity
Method: Moisture sorption/desorption data were collected on a TA Instruments Vapor Sorption Analyzer Q5000SA.
First step: sorption data was collected in the range 40% to 90% relative humidity (RH).
Second Step: desorption, sorption and desorption data were collected over a range of 0% to 90% RH at 10% RH intervals under a nitrogen purge. Samples were not dried prior to analysis. Equilibrium criteria used for analysis were less than 0.100% weight change in 20 minutes, with a maximum equilibration time of 1 hour if the weight criterion was not met. Data were not corrected for the initial moisture content of the samples. NaBr was used as humidity verification.
Moisture sorption/desorption data were also collected on a ProUmid SnS 23 equipped with a 23 autosampler following Method 1.
In the first step sorption data was collected in the range 0% to 90% RH. Samples were not dried prior to analysis.
In the second Step desorption, sorption and desorption data were collected over a range of 0% to 90% (RH) at 10% RH intervals under a nitrogen purge. Data were not corrected for the initial moisture content of the samples.

[6] = 20% SBE-βCD, citrate buffer 0.05 M, nominal 40 mg/ml
[7] = 20% SBE-βCD, citrate buffer 0.05 M, nominal 40 mg/ml, listed as Free base Form A
[8] = 20% SBE-βCD, citrate buffer 0.1 M, nominal 40 mg/ml
[9] = 20% SBE-βCD, citrate buffer 0.1 M, nominal 40 mg/ml, listed as Free base Form A
[10] = 20% SBE-βCD, citrate buffer 0.5 M, nominal 40 mg/ml
[11] = 20% SBE-βCD, citrate buffer 0.5 M, nominal 40 mg/ml, listed as Free base Form A
[12] = 20% SBE-βCD, citrate buffer 1 M, nominal 40 mg/ml

- % area main peak (LC/UV) [1]: 99.8 % area
- pH at the end of the experiment ([2]; FaSSGF): 3.1
- Time to decrease of solubility / duration of sustained solubility ([2]; FaSSGF, 37 °C): approximately 3 hours
- pH at the end of the experiment ([2]; FaSSIF): 6.4
- Maximum solubility ([2]; FaSSIF, 37 °C, 24 hours): 40 µg/mL
- pH at the end of the experiment ([2]; FeSSIF): 5.1
- solubility at 24 h ([2]; fassgf, 37 °C, 24 hours, read-out: Maximum solubility): ~11000 µg/mL (≈ 28.9 mM)
- solubility at 24 h ([2]; fessif, 37 °C, 24 hours, read-out: Maximum solubility): 100 µg/mL (≈ 0.263 mM)
- pH after the addition of FaSSIF ([3]; first experiment): 5.8
- Precipitation start after FaSSIF addition ([3]; first experiment, no pH adjustment, 37 °C): about 10 minutes
- Estimated supersaturation duration (parachute effect) [3]: 8 min
- Time of precipitation ([3]; third experiment): roughly 20 minutes
- Appearance [4, 6]: suspension
- Appearance [4, 7]: Fine suspension
- pH of formulation [4, 7]: 3.1
- Appearance [4, 8]: suspension
- Appearance [4, 9]: Suspension
- pH of formulation [4, 9]: 3.5
- Appearance [4, 10]: suspension
- Appearance [4, 11]: Thick suspension
- pH of formulation [4, 11]: 3.2
- Time of gelification ([4]; 20% SBE-βCD, citrate buffer 1 M): 24 h
- Appearance [4, 12]: Solution, gel after 24 hours
- pH of formulation [4, 12]: 3.2
- Time of gelification ([4]; 20% SBE-βCD, citrate buffer 1 M, listed as Free base Form A): ≤ 24 h
- Total weight gain (hygroscopicity) ([5]; between 2.5% and 90% RH): about 0.249 wt %
- Hygroscopicity ([5]; between 20% and 80% RH): No hygroscopicity was noted
- Total water uptake ([5]; between 20% and 80% RH): 0.249%
SMILES: COc1cc(-c2ccc(F)cn2)cc2c(N[C@H](C)c3noc(C)n3)ncnc12 [free base Form A, (R)-6-(5-fluoropyridin-2-yl)-8-methoxy-N-(1-(5-methyl-1,2,4-oxadiazol-3-yl)ethyl)quinazolin-4-amine]
- Dissolution behaviour ([2]; FaSSGF, 37 °C, 24 hours): steady increase of solubility, but not complete solubilisation

- % area main peak (LC/UV) [1]: 99.9 % area
- pH at the end of the experiment ([2]; FaSSGF): 1.8
- Time to decrease of solubility / duration of sustained solubility ([2]; FaSSGF, 37 °C): at least 24 hours
- Maximum solubility ([2]; FaSSGF, 37 °C, 24 hours): 14000 µg/mL
- pH at the end of the experiment ([2]; FaSSIF): 6.1
- Maximum solubility ([2]; FaSSIF, 37 °C, 24 hours): 100 µg/mL
- pH at the end of the experiment ([2]; FeSSIF): 5.0
- Maximum solubility ([2]; FeSSIF, 37 °C, 24 hours): 70 µg/mL
- solubility at 24 h ([2]; fassif, read-out: Solubility by UPLC/UV/MS at the end of the experiment): 30 µg/mL
- solubility at 24 h ([2]; fessif, read-out: Solubility by UPLC/UV/MS at the end of the experiment): 170 µg/mL
- pH measured at the end of the experiment ([3]; first experiment): 4.5
- Precipitation after FaSSIF addition ([3]; first experiment, no pH adjustment): No precipitation was observed
- Estimated supersaturation duration (parachute effect) [3]: 14 min
- Duration of the parachute effect compared to free base Form A ([3]; third experiment): longer duration of the parachute effect
- Time of precipitation ([3]; third experiment): 40 min
- Appearance [4, 6]: Solution
- pH of formulation [4, 6]: 3.0
- Appearance [4, 8]: Solution
- pH of formulation [4, 8]: 3.0
- Appearance [4, 10]: Solution
- pH of formulation [4, 10]: 2.8
- Appearance [4, 12]: Solution
- pH of formulation [4, 12]: 2.8
- Formulability in solution compared to free base Form A ([4]; 20% SBE-βCD, citrate buffers): better formulability in solution
- Gelification during the test period ([4]; all citrate buffer concentrations, up to 8 days, RT): No gelification was observed
- Appearance ([4]; all concentrations of citrate buffer): Stable solutions
- Total weight gain (hygroscopicity) ([5]; between 0% and 90% RH): about 1.049 wt %
SMILES: COc1cc(-c2ccc(F)cn2)cc2c(N[C@H](C)c3noc(C)n3)ncnc12 [mesylate salt Form 2, (R)-6-(5-fluoropyridin-2-yl)-8-methoxy-N-(1-(5-methyl-1,2,4-oxadiazol-3-yl)ethyl)quinazolin-4-amine]
- Stability ([1]; 84 days): surprisingly good stability during stressed storage
- Dissolution behaviour ([2]; FaSSGF, 37 °C, 24 hours): complete solubilisation was achieved; also recorded: no decrease in the solubility during the 24 hours
